In patent US7256187B2, “Rifamycin C-11 oxime derivatives effective against drug-resistant microbes” (Cumbre Pharmaceuticals Inc., priority 2004, dated 2007):
Converted amounts (≈) assume the structure as drawn.

What was measured:
Assay type in all cases: cell-based
[1] = tested on: Staphylococcus aureus ATCC29213 rpoB^D417Y; experiment: microbe, parasite or virus in culture; conditions: Staphylococcus aureus ATCC29213 rpoB^D417Y, rifR; read-out: Antimicrobial activity (MIC)
Procedure: (§1) Representative compounds were assayed for antimicrobial activity as follows: Minimum Inhibitory Concentrations (“MICs”) were determined by the microbroth dilution method as per NCCLS guidelines (National Committee for Clinical Laboratory Standards. 2000. Methods for dilution antimicrobial susceptibility tests for bacteria that grow aerobically, 5th ed. M7-A5. National Committee for Clinical Laboratory Standards, Wayne, Pa.), except that all growth incubations were conducted at 37° C. Bacterial cultures were tested in the following bacteriological media: S. aureus, S. epidermidis, and E. coli in Cation-Adjusted Mueller-Hinton Broth, S. pneumoniae in THY Broth supplemented with 1 mg/mL catalase under 5% CO2 atmosphere, S. pyogenes in THY Broth, E. faecalis in BHI Broth, H. influenzae in BHI Broth supplemented with 0.75 μL of 1 mg/mL NAD and 150 μL of 1 mg/ml hematin per 5 mL, and M. smegmatis in Middlebrook Broth plus ADC Enrichment.
(§2) S. aureus ATCC 29213 RpoB^H418Y is a rifampin-resistant strain with a mutation in the RpoB gene of RNA polymerase. […] S. aureus EN1252a gyrA^S84L grlA^S80F is a quinolone-resistant strain due to double gene mutations of DNA gyrase and topoisomerase IV.

[2] = tested on: Staphylococcus aureus EN1252a gyrA^S84L grlA^S80F; experiment: microbe, parasite or virus in culture; conditions: Staphylococcus aureus EN1252a gyrA^S84L grlA^S80F, cipR; read-out: Antimicrobial activity (MIC)
Procedure: as §1, §2

[3] = tested on: Staphylococcus aureus ATCC29213 rpoB^H418Y; experiment: microbe, parasite or virus in culture; conditions: Staphylococcus aureus ATCC29213 rpoB^H418Y, rifR; read-out: Antimicrobial activity (MIC)
Procedure: as §1, §2

[4] = tested on: Enterococcus faecalis ATCC29212; experiment: MIC, microbroth dilution; conditions: Enterococcus faecalis ATCC29212, rifS; read-out: Antimicrobial activity (MIC)
[5] = tested on: Streptococcus pneumoniae ATCC6303; experiment: MIC, microbroth dilution; conditions: Streptococcus pneumoniae ATCC6303, rifS; read-out: Antimicrobial activity (MIC)
[6] = tested on: Streptococcus pyogenes ATCC19615; experiment: MIC, microbroth dilution; conditions: Streptococcus pyogenes ATCC19615, rifS; read-out: Antimicrobial activity (MIC)
[7] = tested on: Haemophilus influenzae ATCC10211; experiment: MIC, microbroth dilution; conditions: Haemophilus influenzae ATCC10211, rifS; read-out: Antimicrobial activity (MIC)
[8] = tested on: Escherichia coli ATCC25922; experiment: MIC, microbroth dilution; conditions: Escherichia coli ATCC25922, rifS; read-out: Antimicrobial activity (MIC)
[9] = tested on: Staphylococcus epidermidis ATCC12228; experiment: MIC, microbroth dilution; conditions: Staphylococcus epidermidis ATCC12228, rifS; read-out: Antimicrobial activity (MIC)
[10] = tested on: Mycobacterium smegmatis ATCC700084; experiment: MIC, microbroth dilution; conditions: Mycolicibacterium smegmatis; Mycobacterium smegmatis ATCC700084, rifS; read-out: Antimicrobial activity (MIC)
[11] = tested on: Staphylococcus aureus ATCC29213; experiment: MIC, microbroth dilution; conditions: Staphylococcus aureus ATCC29213, rifS; read-out: Antimicrobial activity (MIC)

Structure (SMILES)	MIC [1] [µg/mL]	MIC [2] [µg/mL]	MIC [3] [µg/mL]	MIC [4] [µg/mL]	MIC [5] [µg/mL]	MIC [6] [µg/mL]	MIC [7] [µg/mL]	MIC [8] [µg/mL]	MIC [9] [µg/mL]	MIC [10] [µg/mL]	MIC [11] [µg/mL]
CO[C@H]1/C=C/O[C@@]2(C)Oc3c(C)c(O)c4c(c3/C2=N/OCCN2CCN(c3cccc(C(F)(F)F)c3)CC2)C(=O)C=C(NC(=O)/C(C)=C\C=C\[C@H](C)[C@H](O)[C@@H](C)[C@@H](O)[C@@H](C)[C@H](OC(C)=O)[C@@H]1C)C4=O [Example 18, 11-Deoxy-11-{2-[4-(3-trifluoromethyl-phenyl)-piperazin-1-yl]ethoxyimino}rifamycin S]	0.25 to 32 (≈ 0.259 to 33.1 µM)	0.004 to 0.5 (≈ 0.00414 to 0.517 µM)	0.125 to 16 (≈ 0.129 to 16.5 µM)	2 to 32 (≈ 2.07 to 33.1 µM)	0.0002 to 0.125 (≈ 0.000207 to 0.129 µM)	0.0005 to 0.063 (≈ 0.000517 to 0.0651 µM)	0.03 to 2 (≈ 0.031 to 2.07 µM)	0.125 to 8 (≈ 0.129 to 8.27 µM)	0.0005 to 0.063 (≈ 0.000517 to 0.0651 µM)	0.5 to 64 (≈ 0.517 to 66.2 µM)	0.004 to 0.5 (≈ 0.00414 to 0.517 µM)
CO[C@H]1/C=C/O[C@@]2(C)Oc3c(C)c(O)c4c(c3/C2=N/OCCN2CCN(S(=O)(=O)c3cccc5ccncc35)CC2)C(=O)C=C(NC(=O)/C(C)=C\C=C\[C@H](C)[C@H](O)[C@@H](C)[C@@H](O)[C@@H](C)[C@H](OC(C)=O)[C@@H]1C)C4=O [Example 19, 11-Deoxy-11-{2-[4-(isoquinoline-8-sulfonyl)-piperazin-1-yl]-ethoxyimino}rifamycin S]	0.25 to 32 (≈ 0.247 to 31.6 µM)	0.004 to 0.5 (≈ 0.00394 to 0.493 µM)	0.125 to 16 (≈ 0.123 to 15.8 µM)	2 to 32 (≈ 1.97 to 31.6 µM)	0.0002 to 0.125 (≈ 0.000197 to 0.123 µM)	0.0005 to 0.063 (≈ 0.000493 to 0.0621 µM)	0.03 to 2 (≈ 0.0296 to 1.97 µM)	0.125 to 8 (≈ 0.123 to 7.89 µM)	0.0005 to 0.063 (≈ 0.000493 to 0.0621 µM)	0.5 to 64 (≈ 0.493 to 63.1 µM)	0.004 to 0.5 (≈ 0.00394 to 0.493 µM)
CO[C@H]1/C=C/O[C@@]2(C)Oc3c(C)c(O)c4c(c3/C2=N/OCCN(CCO)CCO)C(=O)C=C(NC(=O)/C(C)=C\C=C\[C@H](C)[C@H](O)[C@@H](C)[C@@H](O)[C@@H](C)[C@H](OC(C)=O)[C@@H]1C)C4=O [Example 20, 11-Deoxy-11-{2-[bis-(2-hydroxy-ethyl)-amino]ethoxyimino}rifamycin S]	0.25 to 32 (≈ 0.297 to 38 µM)	0.004 to 0.5 (≈ 0.00475 to 0.594 µM)	0.125 to 16 (≈ 0.148 to 19 µM)	2 to 32 (≈ 2.38 to 38 µM)	0.0002 to 0.125 (≈ 0.000238 to 0.148 µM)	0.0005 to 0.063 (≈ 0.000594 to 0.0748 µM)	0.03 to 2 (≈ 0.0356 to 2.38 µM)	0.125 to 8 (≈ 0.148 to 9.5 µM)	0.0005 to 0.063 (≈ 0.000594 to 0.0748 µM)	0.5 to 64 (≈ 0.594 to 76 µM)	0.004 to 0.5 (≈ 0.00475 to 0.594 µM)
CO[C@H]1/C=C/O[C@@]2(C)Oc3c(C)c(O)c4c(c3/C2=N/OCCN2CC(C)NC(C)C2)C(=O)C=C(NC(=O)/C(C)=C\C=C\[C@H](C)[C@H](O)[C@@H](C)[C@@H](O)[C@@H](C)[C@H](OC(C)=O)[C@@H]1C)C4=O (stereo partly shown) [Example 21, 11-Deoxy-11-[2-(3,5-dimethyl-piperazin-1-yl)ethoxyimino]rifamycin S]	0.25 to 32 (≈ 0.294 to 37.6 µM)	0.004 to 0.5 (≈ 0.0047 to 0.588 µM)	0.125 to 16 (≈ 0.147 to 18.8 µM)	2 to 32 (≈ 2.35 to 37.6 µM)	0.0002 to 0.125 (≈ 0.000235 to 0.147 µM)	0.0005 to 0.063 (≈ 0.000588 to 0.074 µM)	0.03 to 2 (≈ 0.0353 to 2.35 µM)	0.125 to 8 (≈ 0.147 to 9.4 µM)	0.0005 to 0.063 (≈ 0.000588 to 0.074 µM)	0.5 to 64 (≈ 0.588 to 75.2 µM)	0.004 to 0.5 (≈ 0.0047 to 0.588 µM)
CO[C@H]1/C=C/O[C@@]2(C)Oc3c(C)c(O)c4c(c3/C2=N/OCCN2CCN(C)CC2)C(=O)C=C(NC(=O)/C(C)=C\C=C\[C@H](C)[C@H](O)[C@@H](C)[C@@H](O)[C@@H](C)[C@H](OC(C)=O)[C@@H]1C)C4=O [Example 22, 11-Deoxy-11-[2-(4-methylpiperazin-1-yl)ethoxyimino]rifamycin S]	0.25 to 32 (≈ 0.299 to 38.2 µM)	0.004 to 0.5 (≈ 0.00478 to 0.597 µM)	0.125 to 16 (≈ 0.149 to 19.1 µM)	2 to 32 (≈ 2.39 to 38.2 µM)	0.0002 to 0.125 (≈ 0.000239 to 0.149 µM)	0.0005 to 0.063 (≈ 0.000597 to 0.0753 µM)	0.03 to 2 (≈ 0.0358 to 2.39 µM)	0.125 to 8 (≈ 0.149 to 9.56 µM)	0.0005 to 0.063 (≈ 0.000597 to 0.0753 µM)	0.5 to 64 (≈ 0.597 to 76.5 µM)	0.004 to 0.5 (≈ 0.00478 to 0.597 µM)
